From ChEMBL document CHEMBL5505951, “Insight into the design of FGFR4 selective inhibitors in cancer therapy: Prospects and challenges” (Eur J Med Chem, 2024) come the findings set out here.

Data set [1] addresses T1, Fibroblast growth factor receptor 1 (Homo sapiens, UniProt P11362). The data set can be described thus: Inhibition of N-terminal 6xHis-tagged human FGFR1 (456 to 765 residues) transfected in Escherichia coli Rossetta cells incubated for 30 mins by ADP-Glo assay.
The target of data set [2] is T2, Fibroblast growth factor receptor 2 (Homo sapiens, UniProt P21802). The data set can be described thus: Inhibition of N-terminal 6xHis-tagged human FGFR2 (453 to 770 residues) transfected in Escherichia coli Rossetta cells incubated for 30 mins by ADP-Glo assay.
T2 sequence (P21802 whole entry, the tested form may be a part): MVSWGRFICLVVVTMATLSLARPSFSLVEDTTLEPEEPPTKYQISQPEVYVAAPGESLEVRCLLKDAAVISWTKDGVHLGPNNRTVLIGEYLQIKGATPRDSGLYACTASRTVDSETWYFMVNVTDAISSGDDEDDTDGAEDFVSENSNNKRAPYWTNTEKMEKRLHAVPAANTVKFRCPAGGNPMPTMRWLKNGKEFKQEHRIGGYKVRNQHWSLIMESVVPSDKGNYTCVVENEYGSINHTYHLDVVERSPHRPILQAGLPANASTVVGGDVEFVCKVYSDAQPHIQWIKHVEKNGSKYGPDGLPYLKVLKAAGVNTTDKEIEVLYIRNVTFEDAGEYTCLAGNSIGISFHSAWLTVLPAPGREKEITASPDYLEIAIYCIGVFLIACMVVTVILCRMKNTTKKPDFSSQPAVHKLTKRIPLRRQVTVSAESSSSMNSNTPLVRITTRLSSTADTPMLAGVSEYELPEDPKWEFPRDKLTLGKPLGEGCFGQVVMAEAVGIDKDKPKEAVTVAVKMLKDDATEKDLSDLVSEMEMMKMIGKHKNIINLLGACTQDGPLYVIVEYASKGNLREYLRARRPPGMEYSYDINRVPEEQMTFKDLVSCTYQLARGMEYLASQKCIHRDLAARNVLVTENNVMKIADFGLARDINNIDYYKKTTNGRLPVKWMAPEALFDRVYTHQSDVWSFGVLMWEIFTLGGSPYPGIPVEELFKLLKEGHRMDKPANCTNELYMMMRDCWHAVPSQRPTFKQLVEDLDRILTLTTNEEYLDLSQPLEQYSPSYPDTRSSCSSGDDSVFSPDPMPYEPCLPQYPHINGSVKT
Data set [3] deals with T3, Fibroblast growth factor receptor 3 (Homo sapiens, UniProt P22607). The data set can be described thus: Inhibition of N-terminal 6xHis-tagged human FGFR3 (450 to 758 residues) transfected in Escherichia coli Rossetta cells incubated for 30 mins by ADP-Glo assay.
T3 sequence (P22607 whole entry, the tested form may be a part): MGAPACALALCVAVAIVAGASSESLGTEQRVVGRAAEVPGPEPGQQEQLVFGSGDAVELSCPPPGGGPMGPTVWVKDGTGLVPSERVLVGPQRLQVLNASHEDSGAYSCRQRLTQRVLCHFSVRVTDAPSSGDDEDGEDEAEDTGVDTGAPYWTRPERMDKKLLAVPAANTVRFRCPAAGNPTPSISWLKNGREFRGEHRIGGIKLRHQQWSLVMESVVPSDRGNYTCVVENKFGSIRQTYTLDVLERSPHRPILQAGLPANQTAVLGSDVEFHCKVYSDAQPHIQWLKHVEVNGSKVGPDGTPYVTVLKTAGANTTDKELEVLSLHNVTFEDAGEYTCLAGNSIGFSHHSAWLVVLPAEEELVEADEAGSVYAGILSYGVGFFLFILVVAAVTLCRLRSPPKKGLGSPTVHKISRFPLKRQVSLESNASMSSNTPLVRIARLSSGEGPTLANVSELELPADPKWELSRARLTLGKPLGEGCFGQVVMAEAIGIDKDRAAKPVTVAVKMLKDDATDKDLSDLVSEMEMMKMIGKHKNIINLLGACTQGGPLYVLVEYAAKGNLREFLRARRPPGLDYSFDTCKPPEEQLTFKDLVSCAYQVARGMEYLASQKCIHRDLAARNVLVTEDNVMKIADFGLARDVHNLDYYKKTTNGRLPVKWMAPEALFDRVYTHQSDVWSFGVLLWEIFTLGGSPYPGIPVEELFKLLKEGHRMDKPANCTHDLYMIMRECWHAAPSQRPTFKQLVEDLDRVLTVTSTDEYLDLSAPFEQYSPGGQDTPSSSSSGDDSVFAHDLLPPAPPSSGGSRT
Data set [4] has as its target Fibroblast growth factor receptor 4 (Homo sapiens, UniProt P22455, C477A/C552A). Description: Inhibition of FGFR4 C552A/C477A double mutant (unknown origin).
Data set [5] deals with T1, Fibroblast growth factor receptor 1. The data set can be described thus: Inhibition of FGFR1 (unknown origin) incubated for 30 mins by ADP-Glo assay.
Data set [6] has as its target T3, Fibroblast growth factor receptor 3. Description: Inhibition of FGFR3 (unknown origin) incubated for 30 mins by ADP-Glo assay.
In data set [7] the test system is Huh-7. Description: Antiproliferative activity against human Huh-7 cells expressing FGFR2 assessed as reduction in cell viability incubated for 48 hrs by MTT assay. Type of data set: functional, cell-based. The following applies: Huh-7, 48 h.
For data set [8], the system named is Huh-7. The data set can be described thus: Antiproliferative activity against human Huh-7 cells expressing FGFR3 assessed as reduction in cell viability incubated for 48 hrs by MTT assay. Type of data set: functional, cell-based. The note with it: Huh-7, 48 h.
Data set [9] deals with Hep 3B2. Description: Antiproliferative activity against human Hep3B cells expressing FGFR2 assessed as reduction in cell viability incubated for 48 hrs by MTT assay. The data set is classed as functional, cell-based.
Data set [10] relates to Hep 3B2. Description: Antiproliferative activity against human Hep3B cells expressing FGFR3 assessed as reduction in cell viability incubated for 48 hrs by MTT assay. Type of data set: functional, cell-based.
For data set [11], the system named is Huh-7. The data set can be described thus: Antiproliferative activity against FGF19/FGFR4 dependent human Huh-7 cells assessed as reduction in cell viability. The data set is classed as functional, cell-based.
Data set [12] deals with Hep 3B2. The data set can be described thus: Antiproliferative activity against FGF19/FGFR4 dependent human Hep3B cells assessed as reduction in cell viability. Type of data set: functional, cell-based.
The target in data set [13] is T1, Fibroblast growth factor receptor 1. The data set can be described thus: Inhibition of FGFR1 (unknown origin).
Data set [14] has as its target T2, Fibroblast growth factor receptor 2. Description: Inhibition of FGFR2 (unknown origin).
The target of data set [15] is T3, Fibroblast growth factor receptor 3. The data set can be described thus: Inhibition of FGFR3 (unknown origin).
Data set [16] can be described thus: Half life in human. Type of data set: ADME.
In data set [17] the test system is Hep 3B2. Description: Antitumor activity against human Hep3B cells xenografted in BALB/c nude mouse assessed as tumor growth inhibition at 100 mg/kg, po relative to control. Type of data set: functional. The note with it: read-out: TGI.

T1 sequence (P11362 whole entry, the tested form may be a part): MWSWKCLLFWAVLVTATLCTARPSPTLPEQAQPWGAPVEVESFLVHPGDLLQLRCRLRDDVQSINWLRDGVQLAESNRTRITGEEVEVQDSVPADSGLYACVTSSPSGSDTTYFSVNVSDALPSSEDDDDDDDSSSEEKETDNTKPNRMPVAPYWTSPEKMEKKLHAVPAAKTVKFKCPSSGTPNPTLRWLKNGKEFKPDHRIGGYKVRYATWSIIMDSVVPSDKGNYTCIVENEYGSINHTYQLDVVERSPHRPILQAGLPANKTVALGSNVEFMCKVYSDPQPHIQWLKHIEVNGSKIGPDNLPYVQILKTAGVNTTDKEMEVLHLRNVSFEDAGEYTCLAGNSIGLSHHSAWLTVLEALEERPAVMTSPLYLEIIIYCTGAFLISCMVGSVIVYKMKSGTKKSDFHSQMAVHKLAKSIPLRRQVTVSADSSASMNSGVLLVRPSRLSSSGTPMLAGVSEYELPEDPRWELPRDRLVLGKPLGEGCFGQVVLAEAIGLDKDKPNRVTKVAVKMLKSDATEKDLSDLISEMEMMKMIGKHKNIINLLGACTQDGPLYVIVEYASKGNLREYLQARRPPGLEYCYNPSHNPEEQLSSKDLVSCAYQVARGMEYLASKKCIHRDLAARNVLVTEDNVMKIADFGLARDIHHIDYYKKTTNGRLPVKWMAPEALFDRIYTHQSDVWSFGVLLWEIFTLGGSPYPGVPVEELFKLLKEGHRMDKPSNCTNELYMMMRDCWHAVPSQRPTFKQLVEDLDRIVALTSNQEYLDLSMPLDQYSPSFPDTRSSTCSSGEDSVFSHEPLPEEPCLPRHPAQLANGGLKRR
Chain of Fibroblast growth factor receptor 4 (P22455 22-802 C477A/C552A limits assumed): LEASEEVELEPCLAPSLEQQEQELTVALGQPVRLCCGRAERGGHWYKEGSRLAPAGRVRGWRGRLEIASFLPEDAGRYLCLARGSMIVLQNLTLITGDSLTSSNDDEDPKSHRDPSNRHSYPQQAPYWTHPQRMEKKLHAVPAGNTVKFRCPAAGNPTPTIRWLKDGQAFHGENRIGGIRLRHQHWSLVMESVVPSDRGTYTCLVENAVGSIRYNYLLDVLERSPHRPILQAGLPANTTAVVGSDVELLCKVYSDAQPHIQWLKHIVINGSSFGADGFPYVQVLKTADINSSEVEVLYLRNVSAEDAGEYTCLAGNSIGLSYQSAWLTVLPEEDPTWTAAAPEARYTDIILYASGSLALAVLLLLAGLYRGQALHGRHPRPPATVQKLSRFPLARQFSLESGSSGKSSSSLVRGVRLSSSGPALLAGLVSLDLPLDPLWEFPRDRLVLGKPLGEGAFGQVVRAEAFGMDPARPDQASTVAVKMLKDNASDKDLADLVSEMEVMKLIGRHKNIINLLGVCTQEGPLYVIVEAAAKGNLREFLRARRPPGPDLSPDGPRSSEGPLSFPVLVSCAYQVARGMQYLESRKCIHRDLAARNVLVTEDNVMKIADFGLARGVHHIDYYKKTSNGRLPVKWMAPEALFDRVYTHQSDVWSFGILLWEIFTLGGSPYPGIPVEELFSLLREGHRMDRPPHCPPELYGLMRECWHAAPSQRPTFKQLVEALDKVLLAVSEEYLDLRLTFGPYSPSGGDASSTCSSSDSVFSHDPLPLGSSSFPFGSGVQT

Turning to `C=CC(=O)Nc1ccccc1Nc1ncc2c(n1)N(CCCN1CCN(C(=O)C=C)CC1)C(=O)N(c1c(Cl)c(OC)cc(OC)c1Cl)C2`, the IC50 in data set [1] stood at 2.58 µM; in [2], 2.41 µM; in [3], 0.977 µM; in [4] it was 1.53 µM.

Regarding `C=CC(=O)Nc1cc(F)cc(Cl)c1Nc1nc(C)c(OCc2c(F)c(OC)cc(OC)c2F)c(C)n1`, the IC50 in data set [5] was over 50 µM; in data set [6], over 30 µM; in data set [7] it was 7.1 µM; in data set [8], 12.6 µM; in data set [9], 0.9 µM; in data set [10], 4.5 µM.

Consider `COc1cc(OC)c(Cl)c(-c2ccc3nc(NCCCNC(=O)/C(C#N)=C/C4CC4)ncc3c2)c1Cl`, for which the IC50 was found to be 9.2 µM in data set [11] and 9 µM in data set [12].

Turning to `C=CC(=O)N[C@H]1CCOC[C@H]1Nc1ncc2cc(-c3c(Cl)c(OC)cc(OC)c3Cl)ccc2n1` [FISOGATINIB], the IC50 in data set [13] came to 0.591 µM; in data set [14], 0.493 µM; in data set [15] it was 0.15 µM. Moreover, the half-life in data set [16] was about 17 h.

For the compound `C=CC(=O)Nc1cc(N2CCN(CC)CC2)ccc1Nc1cc(N(C)C(=O)Nc2c(Cl)c(OC)cc(OC)c2Cl)ncn1` [H3B-6527], the inhibition in vivo at 100 mg/kg in data set [17] turned out to be 109%.
